Experimental data reported in US5840684A, “Glycopeptide antibiotic derivatives” (Eli Lilly and Company, priority 1995, dated 1998).
In brackets after ≈: the same amount, converted by molar mass.

Assays:
[1] = test system: vancomycin-resistant enterococci; assay: broth micro-dilution, mean geometric MIC; format: cell-based, Enterococcus faecium and Enterococcus faecalis; details: enterococci, 24-hour incubation
[2] = test system: vancomycin-susceptible enterococci; assay: broth micro-dilution, mean geometric MIC; format: cell-based, Enterococcus faecium and Enterococcus faecalis; details: enterococci, 24-hour incubation
[3] = test system: Entercoccus faecium 180-1; assay: broth micro-dilution MIC; format: cell-based
Protocol: (§1) The MIC's were determined using a standard broth micro-dilution assay.

[4] = test system: Staphylococcus aureus 491; assay: broth micro-dilution MIC; format: cell-based
Protocol: as §1

[5] = test system: Staphylococcus aureus X400; assay: broth micro-dilution MIC; format: cell-based
Protocol: as §1

[6] = test system: Streptococcus pyogenes C203; assay: broth micro-dilution MIC; format: cell-based
Protocol: as §1

[7] = test system: Staphylococcus aureus SA1199A; assay: broth micro-dilution MIC; format: cell-based
Protocol: as §1

[8] = test system: Staphylococcus aureus 446; assay: broth micro-dilution MIC; format: cell-based
Protocol: as §1

[9] = test system: Staphylococcus aureus 489; assay: broth micro-dilution MIC; format: cell-based
Protocol: as §1

Entercoccus faecium 276 = assay: broth micro-dilution MIC; format: cell-based
Protocol: as §1

[10] = test system: Staphylococcus aureus X778; assay: broth micro-dilution MIC; format: cell-based
Protocol: as §1

[11] = test system: Staphylococcus aureus SA1199; assay: broth micro-dilution MIC; format: cell-based
Protocol: as §1

[12] = test system: Staphylococcus aureus 447; assay: broth micro-dilution MIC; format: cell-based
Protocol: as §1

[13] = test system: Staphylococcus haemolyticus 105; assay: broth micro-dilution MIC; format: cell-based
Protocol: (§2) The formula I compounds have in vitro and in vivo activity against Gram-positive pathogenic bacteria. The MIC's were determined using a standard broth micro-dilution assay.

[14] = test system: Staphylococcus haemolyticus 415; assay: broth micro-dilution MIC; format: cell-based
Protocol: as §2

[15] = test system: Streptococcus pneumoniae P1; assay: broth micro-dilution MIC; format: cell-based
Protocol: as §2

[16] = test system: Staphylococcus epidermidis 270; assay: broth micro-dilution MIC; format: cell-based
Protocol: as §2

[17] = test system: Enterococcus gallinarum 245; assay: broth micro-dilution MIC; format: cell-based; details: Enterococcus gallinarum 245
Protocol: as §2

Entercoccus faecium 180 = assay: broth micro-dilution MIC; format: cell-based; details: Entercoccus faecium 180
Protocol: as §2

Entercoccus faecium 2041 = assay: broth micro-dilution MIC; format: cell-based; details: Entercoccus faecium 2041
Protocol: as §2

[18] = test system: Staphylococcus aureus SA1199B; format: cell-based
Protocol: as §1

[19] = test system: Staphylococcus aureus S13E; format: cell-based
Protocol: as §1

| Structure (SMILES) | mean geometric MIC, Vancomycin Resistant Strains [1] [µg/mL] | mean geometric MIC, Vancomycin Sensitive Strains [2] [µg/mL] | MIC [3] [µg/mL] | MIC [4] [µg/mL] | MIC [5] [µg/mL] | MIC [6] [µg/mL] | MIC [7] [µg/mL] | MIC [8] [µg/mL] | MIC [9] [µg/mL] | MIC (Entercoccus faecium 276) [µg/mL] | MIC [10] [µg/mL] | MIC [11] [µg/mL] | MIC [12] [µg/mL] | MIC [13] [µg/mL] | MIC [15] [µg/mL] | MIC [16] [µg/mL] | MIC (Entercoccus faecium 180) [µg/mL] | MIC (Entercoccus faecium 2041) [µg/mL] | MIC [18] [µg/mL] | MIC [19] [µg/mL] | also measured |
| --- | --- | --- | --- | --- | --- | --- | --- | --- | --- | --- | --- | --- | --- | --- | --- | --- | --- | --- | --- | --- | --- |
| CNC(CC(C)C)C(=O)NC1C(=O)NC(CC(N)=O)C(=O)NC2C(=O)NC3C(=O)NC(C(=O)NC(C(=O)O)c4cc(O)cc(O)c4-c4cc3ccc4O)C(OC3CC(C)(N)C(O)C(C)O3)c3ccc(c(Cl)c3)Oc3cc2cc(c3OC2OC(CO)C(O)C(O)C2OC2CC(C)(NCc3c4ccccc4cc4ccccc34)C(O)C(C)O2)Oc2ccc(cc2Cl)C1O (stereo not drawn) [Compound 13] | 19 | 0.76 | ≤ 0.06 | 2 (≈ 1.12 µM) | 1 (≈ 0.561 µM) | ≤ 0.06 | ≤ 0.06 | 2 (≈ 1.12 µM) | 1 (≈ 0.561 µM) | 0.5 (≈ 0.28 µM) | 2 (≈ 1.12 µM) | 0.5 (≈ 0.28 µM) | 8 (≈ 4.49 µM) | 8 (≈ 4.49 µM) | ≤ 0.06 | 8 (≈ 4.49 µM) | 2 (≈ 1.12 µM) | 0.125 (≈ 0.0701 µM) | 4 (≈ 2.24 µM) | 0.25 (≈ 0.14 µM) | MIC [14]: 1 µg/mL (≈ 0.561 µM); MIC [17]: 0.25 µg/mL (≈ 0.14 µM) |
| CNC(CC(C)C)C(=O)NC1C(=O)NC(CC(N)=O)C(=O)NC2C(=O)NC3C(=O)NC(C(=O)NC(C(=O)O)c4cc(O)cc(O)c4-c4cc3ccc4O)C(OC3CC(C)(N)C(O)C(C)O3)c3ccc(c(Cl)c3)Oc3cc2cc(c3OC2OC(CO)C(O)C(O)C2OC2CC(C)(NCc3ccc(OCCCC#N)cc3)C(O)C(C)O2)Oc2ccc(cc2Cl)C1O (stereo not drawn) [Compound 55] | 13 | 1.7 | ≤ 0.06 | 0.5 (≈ 0.283 µM) | ≤ 0.06 | ≤ 0.06 | ≤ 0.06 | 0.5 (≈ 0.283 µM) | 1 (≈ 0.566 µM) | 0.5 (≈ 0.283 µM) | 0.5 (≈ 0.283 µM) | 0.5 (≈ 0.283 µM) | 4 (≈ 2.27 µM) | 4 (≈ 2.27 µM) | ≤ 0.06 | 1 (≈ 0.566 µM) | 2 (≈ 1.13 µM) | 0.125 (≈ 0.0708 µM) | 0.5 (≈ 0.283 µM) | 0.5 (≈ 0.283 µM) |  |
| CN[C@H](CC(C)C)C(=O)N[C@H]1C(=O)N[C@@H](CC(N)=O)C(=O)N[C@H]2C(=O)N[C@H]3C(=O)N[C@H](C(=O)N[C@H](C(=O)O)c4cc(O)cc(O)c4-c4cc3ccc4O)[C@H](O[C@H]3C[C@](C)(N)[C@@H](O)[C@H](C)O3)c3ccc(c(Cl)c3)Oc3cc2cc(c3O[C@@H]2O[C@H](CO)[C@@H](O)[C@H](O)[C@H]2O[C@H]2C[C@](C)(NCc3ccc(Oc4ccc(C)cc4)cc3)[C@@H](O)[C@H](C)O2)Oc2ccc(cc2Cl)[C@H]1O [Compound 95] | 1.7 | 0.054 | ≤ 0.06 | 1 (≈ 0.559 µM) | 1 (≈ 0.559 µM) | ≤ 0.06 | ≤ 0.06 | 0.5 (≈ 0.28 µM) | 2 (≈ 1.12 µM) | 0.125 (≈ 0.0699 µM) | 1 (≈ 0.559 µM) | 0.5 (≈ 0.28 µM) | 0.5 (≈ 0.28 µM) | 1 (≈ 0.559 µM) | ≤ 0.06 | 1 (≈ 0.559 µM) | 0.5 (≈ 0.28 µM) | ≤ 0.06 | 1 (≈ 0.559 µM) | 2 (≈ 1.12 µM) | MIC [14]: 1 µg/mL (≈ 0.559 µM); MIC [17]: 1 µg/mL (≈ 0.559 µM) |
| CNC(CC(C)C)C(=O)NC1C(=O)NC(CC(N)=O)C(=O)NC2C(=O)NC3C(=O)NC(C(=O)NC(C(=O)O)c4cc(O)cc(O)c4-c4cc3ccc4O)C(OC3CC(C)(N)C(O)C(C)O3)c3ccc(c(Cl)c3)Oc3cc2cc(c3OC2OC(CO)C(O)C(O)C2OC2CC(C)(NCc3ccc(S(=O)(=O)N4CCCC4)cc3)C(O)C(C)O2)Oc2ccc(cc2Cl)C1O (stereo not drawn) [Compound 174] | 19 | 0.76 | ≤ 0.06 | 1 (≈ 0.551 µM) | ≤ 0.06 | ≤ 0.06 | ≤ 0.06 | 0.5 (≈ 0.275 µM) | ≤ 0.06 | ≤ 0.06 | ≤ 0.06 | ≤ 0.06 | 4 (≈ 2.2 µM) | 4 (≈ 2.2 µM) | ≤ 0.06 | 2 (≈ 1.1 µM) | 2 (≈ 1.1 µM) | ≤ 0.06 | 0.125 (≈ 0.0688 µM) | ≤ 0.06 | MIC [14]: 16 µg/mL (≈ 8.81 µM); MIC [17]: 16 µg/mL (≈ 8.81 µM) |
| CNC(CC(C)C)C(=O)NC1C(=O)NC(CC(N)=O)C(=O)NC2C(=O)NC3C(=O)NC(C(=O)NC(C(=O)O)c4cc(O)cc(O)c4-c4cc3ccc4O)C(OC3CC(C)(N)C(O)C(C)O3)c3ccc(c(Cl)c3)Oc3cc2cc(c3OC2OC(CO)C(O)C(O)C2OC2CC(C)(NCc3ccc(N=Nc4ccccc4)cc3)C(O)C(C)O2)Oc2ccc(cc2Cl)C1O (stereo not drawn) [Compound 210] | 0.84 | 0.041 | ≤ 0.06 | ≤ 0.06 | ≤ 0.06 | ≤ 0.06 | ≤ 0.06 | 2 (≈ 1.12 µM) | 1 (≈ 0.56 µM) | ≤ 0.06 | 1 (≈ 0.56 µM) | 0.5 (≈ 0.28 µM) | 0.5 (≈ 0.28 µM) | 1 (≈ 0.56 µM) | ≤ 0.06 | 0.25 (≈ 0.14 µM) | ≤ 0.06 | ≤ 0.06 | 0.125 (≈ 0.07 µM) | ≤ 0.06 | MIC [14]: 1 µg/mL (≈ 0.56 µM); MIC [17]: 1 µg/mL (≈ 0.56 µM) |
| CNC(CC(C)C)C(=O)NC1C(=O)NC(CC(N)=O)C(=O)NC2C(=O)NC3C(=O)NC(C(=O)NC(C(=O)O)c4cc(O)cc(O)c4-c4cc3ccc4O)C(OC3CC(C)(N)C(O)C(C)O3)c3ccc(c(Cl)c3)Oc3cc2cc(c3OC2OC(CO)C(O)C(O)C2OC2CC(C)(NCc3ccc4c(c3)OCCO4)C(O)C(C)O2)Oc2ccc(cc2Cl)C1O (stereo not drawn) [Compound 56] | 19 |  | ≤ 0.06 | 0.5 (≈ 0.287 µM) | ≤ 0.06 | ≤ 0.06 | ≤ 0.06 | 0.5 (≈ 0.287 µM) | 1 (≈ 0.575 µM) | 0.25 (≈ 0.144 µM) | 0.125 (≈ 0.0718 µM) | 0.125 (≈ 0.0718 µM) | 2 (≈ 1.15 µM) | 4 (≈ 2.3 µM) | ≤ 0.06 | 1 (≈ 0.575 µM) | 2 (≈ 1.15 µM) | 0.25 (≈ 0.144 µM) | 0.5 (≈ 0.287 µM) | 0.125 (≈ 0.0718 µM) | MIC [14]: 16 µg/mL (≈ 9.19 µM); MIC [17]: 16 µg/mL (≈ 9.19 µM) |
| CNC(CC(C)C)C(=O)NC1C(=O)NC(CC(N)=O)C(=O)NC2C(=O)NC3C(=O)NC(C(=O)NC(C(=O)O)c4cc(O)cc(O)c4-c4cc3ccc4O)C(OC3CC(C)(N)C(O)C(C)O3)c3ccc(c(Cl)c3)Oc3cc2cc(c3OC2OC(CO)C(O)C(O)C2OC2CC(C)(NCc3cc4ccccc4c4ccccc34)C(O)C(C)O2)Oc2ccc(cc2Cl)C1O (stereo not drawn) [Compound 11] |  | 0.22 | ≤ 0.06 | 1 (≈ 0.561 µM) | 0.5 (≈ 0.28 µM) | ≤ 0.06 | ≤ 0.06 | 4 (≈ 2.24 µM) | 1 (≈ 0.561 µM) | 1 (≈ 0.561 µM) | 0.25 (≈ 0.14 µM) | 2 (≈ 1.12 µM) | 4 (≈ 2.24 µM) | 4 (≈ 2.24 µM) | ≤ 0.06 | 2 (≈ 1.12 µM) | 1 (≈ 0.561 µM) | 0.5 (≈ 0.28 µM) | 2 (≈ 1.12 µM) | 0.5 (≈ 0.28 µM) | MIC [14]: 2 µg/mL (≈ 1.12 µM); MIC [17]: ≤ 0.06 µg/mL |
